# Where a name gives a salt, the structure may show the parent alone.
# How the values were obtained:
# human OX1 receptor = target: T1, human OX1 receptor (Homo sapiens, UniProt O43613); test: Measurement of orexin receptor antagonistic activity (calcium fluorescence, FLIPRtetra); format: cell-based; conditions: CHO, 10 μM test compound; CHO cells expressing human OX1 receptor; OX-A 1 nM; read-out: Human Orexin1 receptor inhibition (at 10 μM)
# T1 construct: expressed in transfected cells; host or cells: CHO cells
# T1 sequence (O43613 1-425): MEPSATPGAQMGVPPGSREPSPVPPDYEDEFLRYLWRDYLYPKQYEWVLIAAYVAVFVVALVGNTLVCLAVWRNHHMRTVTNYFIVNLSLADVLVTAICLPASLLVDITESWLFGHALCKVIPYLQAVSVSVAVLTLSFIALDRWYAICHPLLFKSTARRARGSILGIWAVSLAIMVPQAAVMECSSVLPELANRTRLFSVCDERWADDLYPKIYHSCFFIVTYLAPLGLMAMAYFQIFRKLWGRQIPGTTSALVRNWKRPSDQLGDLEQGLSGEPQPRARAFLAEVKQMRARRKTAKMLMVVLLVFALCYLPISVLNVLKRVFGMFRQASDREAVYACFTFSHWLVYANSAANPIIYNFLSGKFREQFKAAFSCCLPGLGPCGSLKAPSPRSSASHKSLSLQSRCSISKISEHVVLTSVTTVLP
# Outline: (§1)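 CHO cells expressing human OX1 or OX2 receptor, cultured one day. Compound in HBSS/20 mM HEPES/0.1% BSA added, then orexin-A at 1 nM final (OX1) or 0.3 nM final (OX2); calcium fluorescence by FLIPRtetra every 1 s for 2 min.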
# human OX2 receptor = target: T2, human OX2 receptor (Homo sapiens, UniProt O43614); test: as above; format: cell-based; conditions: CHO, 10 μM test compound; CHO cells expressing human OX2 receptor; OX-A 0.3 nM; read-out: Human Orexin2 receptor inhibition (at 10 μM)
# T2 construct: expressed in transfected cells; host or cells: CHO cells
# T2 sequence (O43614 1-444): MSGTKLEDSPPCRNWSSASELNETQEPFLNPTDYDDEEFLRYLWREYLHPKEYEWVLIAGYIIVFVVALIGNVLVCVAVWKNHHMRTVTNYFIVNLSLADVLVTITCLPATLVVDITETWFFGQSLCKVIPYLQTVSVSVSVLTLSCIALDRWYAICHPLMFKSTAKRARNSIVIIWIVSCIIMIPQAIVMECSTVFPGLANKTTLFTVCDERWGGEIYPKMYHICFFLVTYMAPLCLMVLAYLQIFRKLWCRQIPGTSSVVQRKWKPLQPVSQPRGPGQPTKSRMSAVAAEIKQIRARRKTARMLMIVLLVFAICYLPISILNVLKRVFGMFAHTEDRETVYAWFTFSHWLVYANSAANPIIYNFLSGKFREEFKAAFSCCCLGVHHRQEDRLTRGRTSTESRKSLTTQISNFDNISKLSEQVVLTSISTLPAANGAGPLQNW
# Outline: as §1
SMILES,inhibition at 10 µM (human OX1 receptor) [%],inhibition at 10 µM (human OX2 receptor) [%]
"Cc1cc(N2CCN(C(=O)c3cc(Cl)ccc3-c3nccs3)C[C@H](C)O2)nc(C)n1 [Example 88, (5-chloro-2-(1,3-thiazol-2-yl)phenyl)((7S)-2-(2,6-dimethylpyrimidin-4-yl)-7-methyl-1,2,5-oxadiazepan-5-yl)methanone hydrochloride]",101,99
"Cc1cccc(N2CCN(C(=O)c3ccccc3-c3nccs3)C[C@H](C)O2)n1 [Example 89, ((7S)-7-methyl-2-(6-methylpyridin-2-yl)-1,2,5-oxadiazepan-5-yl) (2-(1,3-thiazol-2-yl)phenyl)methanone]",101,97
"C[C@H]1CN(C(=O)c2ccccc2-c2nccs2)CCN(c2ccc(Cl)cn2)O1 [Example 90, ((7S)-2-(5-chloropyridin-2-yl)-7-methyl-1,2,5-oxadiazepan-5-yl)(2-(1,3-thiazol-2-yl)phenyl)methanone]",101,96
"Cc1cc(C)nc(N2CCN(C(=O)c3ccccc3-c3nccs3)C[C@H](C)O2)c1 [Example 91, ((7S)-2-(4,6-dimethylpyridin-2-yl)-7-methyl-1,2,5-oxadiazepan-5-yl)(2-(1,3-thiazol-2-yl)phenyl)methanone]",100,100
"Cc1nc(N2CCN(C(=O)c3ccccc3-n3nccn3)C[C@H](C)O2)cc(C(F)(F)F)n1 [Example 92, ((7S)-7-methyl-2-(2-methyl-6-(trifluoromethyl)pyrimidin-4-yl)-1,2,5-oxadiazepan-5-yl)(2-(2H-1,2,3-triazol-2-yl)phenyl)methanone]",73,101
"Cc1nc(C(F)F)cc(N2CCN(C(=O)c3ccccc3-n3nccn3)C[C@H](C)O2)n1 [Example 93, ((7S)-2-(6-(difluoromethyl)-2-methylpyrimidin-4-yl)-7-methyl-1,2,5-oxadiazepan-5-yl) (2-(2H-1,2,3-triazol-2-yl)phenyl)methanone]",72,100
"Cc1cc(N2CCN(C(=O)c3ccccc3-n3nccn3)C[C@H](C)O2)nc(C(F)(F)F)n1 [Example 94, ((7S)-7-methyl-2-(6-methyl-2-(trifluoromethyl)pyrimidin-4-yl)-1,2,5-oxadiazepan-5-yl) (2-(2H-1,2,3-triazol-2-yl)phenyl)methanone]",106,104
"C[C@H]1CN(C(=O)c2ccccc2-n2nccn2)CCN(c2cc(C(F)F)nc(C3CC3)n2)O1 [Example 95, ((7S)-2-(2-cyclopropyl-6-(difluoromethyl)pyrimidin-4-yl)-7-methyl-1,2,5-oxadiazepan-5-yl) (2-(2H-1,2,3-triazol-2-yl)phenyl)methanone]",100,97
"C[C@H]1CN(C(=O)c2ccccc2-n2nccn2)CCN(c2cc(C3CC3)nc(C3CC3)n2)O1 [Example 96, ((7S)-2-(2,6-dicyclopropylpyrimidin-4-yl)-7-methyl-1,2,5-oxadiazepan-5-yl) (2-(2H-1,2,3-triazol-2-yl)phenyl)methanone]",98,98
"C[C@H]1CN(C(=O)c2ccccc2-n2nccn2)CCN(c2cc(C(F)(F)F)nc(C3CC3)n2)O1 [Example 97, ((7S)-2-(2-cyclopropyl-6-(trifluoromethyl)pyrimidin-4-yl)-7-methyl-1,2,5-oxadiazepan-5-yl) (2-(2H-1,2,3-triazol-2-yl)phenyl)methanone]",95,100
"C[C@H]1CN(C(=O)c2ccccc2-n2nccn2)CCN(c2ccc(Cl)cn2)O1 [Example 98, ((7S)-2-(5-chloropyridin-2-yl)-7-methyl-1,2,5-oxadiazepan-5-yl) (2-(2H-1,2,3-triazol-2-yl)phenyl)methanone]",97,104
"C[C@H]1CN(C(=O)c2ccccc2-n2nccn2)CCN(c2ccn3nccc3n2)O1 [Example 99, ((7S)-7-methyl-2-(pyrazolo[1,5-a]pyrimidin-5-yl)-1,2,5-oxadiazepan-5-yl)(2-(2H-1,2,3-triazol-2-yl)phenyl)methanone]",87,98
"Cc1nc(C(F)F)cc(N2CCN(C(=O)c3cc(F)ccc3-n3nccn3)C[C@H](C)O2)n1 [Example 100, ((7S)-2-(6-(difluoromethyl)-2-methylpyrimidin-4-yl)-7-methyl-1,2,5-oxadiazepan-5-yl)(5-fluoro-2-(2H-1,2,3-triazol-2-yl)phenyl)methanone]",42,102
"Cc1nc(N2CCN(C(=O)c3cc(F)ccc3-n3nccn3)C[C@H](C)O2)cc(C(F)(F)F)n1 [Example 101, (5-fluoro-2-(2H-1,2,3-triazol-2-yl)phenyl)((7S)-7-methyl-2-(2-methyl-6-(trifluoromethyl)pyrimidin-4-yl)-1,2,5-oxadiazepan-5-yl)methanone]",50,101
"Cc1nc(C(F)F)cc(N2CCN(C(=O)c3cc(Cl)ccc3-n3nccn3)C[C@H](C)O2)n1 [Example 103, (5-chloro-2-(2H-1,2,3-triazol-2-yl)phenyl)((7S)-2-(6-(difluoromethyl)-2-methylpyrimidin-4-yl)-7-methyl-1,2,5-oxadiazepan-5-yl)methanone]",90,100
"Cc1cc(N2CCN(C(=O)c3cc(Cl)ccc3-n3nccn3)C[C@H](C)O2)nc(C(F)(F)F)n1 [Example 104, (5-chloro-2-(2H-1,2,3-triazol-2-yl)phenyl)((7S)-7-methyl-2-(6-methyl-2-(trifluoromethyl)pyrimidin-4-yl)-1,2,5-oxadiazepan-5-yl)methanone]",104,96
"C[C@H]1CN(C(=O)c2cc(Cl)ccc2-n2nccn2)CCN(c2cc(C(F)F)nc(C3CC3)n2)O1 [Example 105, (5-chloro-2-(2H-1,2,3-triazol-2-yl)phenyl)((7S)-2-(2-cyclopropyl-6-(difluoromethyl)pyrimidin-4-yl)-7-methyl-1,2,5-oxadiazepan-5-yl)methanone]",96,98
"Cc1cc(N2CCN(C(=O)c3cc(F)c(F)cc3-n3nccn3)C[C@H](C)O2)nc(C)n1 [Example 106, (4,5-difluoro-2-(2H-1,2,3-triazol-2-yl)phenyl)((7S)-2-(2,6-dimethylpyrimidin-4-yl)-7-methyl-1,2,5-oxadiazepan-5-yl)methanone]",38,99
"Cc1nc(N2CCN(C(=O)c3cc(F)c(F)cc3-n3nccn3)C[C@H](C)O2)cc(C(F)(F)F)n1 [Example 107, (4,5-difluoro-2-(2H-1,2,3-triazol-2-yl)phenyl)((7S)-7-methyl-2-(2-methyl-6-(trifluoromethyl)pyrimidin-4-yl)-1,2,5-oxadiazepan-5-yl)methanone]",37,94
"Cc1cc(N2CCN(C(=O)c3cc(F)c(F)cc3-n3nccn3)C[C@H](C)O2)nc(C(F)(F)F)n1 [Example 108, (4,5-difluoro-2-(2H-1,2,3-triazol-2-yl)phenyl)((7S)-7-methyl-2-(6-methyl-2-(trifluoromethyl)pyrimidin-4-yl)-1,2,5-oxadiazepan-5-yl)methanone]",100,101
"Cc1cc(N2CCN(C(=O)c3ccccc3-c3ncccn3)C[C@H](C)O2)nc(C)n1 [Example 109, ((7S)-2-(2,6-dimethylpyrimidin-4-yl)-7-methyl-1,2,5-oxadiazepan-5-yl)(2-(pyrimidin-2-yl)phenyl)methanone]",85,101
"Cc1cc(N2CCN(C(=O)c3ccccc3-c3nc(C)cs3)C[C@H](C)O2)nc(C)n1 [Example 110, ((7S)-2-(2,6-dimethylpyrimidin-4-yl)-7-methyl-1,2,5-oxadiazepan-5-yl)(2-(4-methyl-1,3-thiazol-2-yl)phenyl)methanone]",79,95
"Cc1nc(N2CCN(C(=O)c3ccccc3-c3nc(C)no3)C[C@H](C)O2)cc(C(F)(F)F)n1 [Example 111, ((7S)-7-methyl-2-(2-methyl-6-(trifluoromethyl)pyrimidin-4-yl)-1,2,5-oxadiazepan-5-yl)(2-(3-methyl-1,2,4-oxadiazol-5-yl)phenyl)methanone]",9,100

# From patent publication US10131653B2, “Heterocyclic compound” (TAKEDA PHARMACEUTICAL COMPANY LIMITED, priority 2015, dated 2018)
